The target of one series is T1, PI3Kδ (Homo sapiens, UniProt O00329).
T1 construct: purchased Millipore Corporation 14-604-K
In words: PI3 Kinase HTRF assay, PI3Kδ. The series is classed as biochemical. The conditions noted are these: 10 μM PIP2, 10 μM ATP; read-out: PI3K δ IC50. In short, it runs like this:
(§1)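 Time-resolved FRET read-out, where product PIP3 competes with biotinylated PIP3 for GST-GRP1 PH domain. Reactions: purified recombinant α, β, γ or δ enzyme, PIP2 10 μM, ATP 10 μM, 1 h at room temperature after 15 min compound preincubation; 12-point IC50 curves from 20 μM to 0.1 nM.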

The next series has as its target T2, PI3Kγ (Homo sapiens, UniProt P48736).
T2 construct: purchased Millipore Corporation 14-558-K
In words: PI3 Kinase HTRF assay, PI3Kγ. The series is classed as biochemical. The settings on record: 10 μM PIP2, 10 μM ATP; read-out: PI3K γ IC50. In short, it runs like this: as §1

The next series addresses T3, PI3Kα (Homo sapiens, UniProt P42336).
T3 construct: purchased Millipore Corporation 14-602-K
In words: PI3 Kinase HTRF assay, PI3Kα. It is filed as biochemical. The conditions noted are these: 10 μM PIP2, 10 μM ATP; read-out: PI3K α IC50. In short, it runs like this:
as §1
On the technique in general: In TR-FRET formats the signal depends on donor and acceptor labels being close together.

The target in another series is T4, PI3Kβ (Homo sapiens, UniProt P42338).
T4 construct: purchased Millipore Corporation 14-603-K
In words: PI3 Kinase HTRF assay, PI3Kβ. The conditions noted are these: 10 μM PIP2, 10 μM ATP; read-out: PI3K β IC50. The series is classed as biochemical. In short, it runs like this:
as §1

Another series deals with Balb/c splenic B cells. In words: B cell activation and proliferation assay (Alamar Blue). The settings on record: Mus musculus, read-out: B cell prolif. IC50. It is filed as cell-based. In short, it runs like this: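 Purified cells (50,000/well, RPMI + 10% FBS) were preincubated 30 min at 37 °C with compound (0.2% DMSO final). Stimulation was with a cocktail containing either 10 ug/ml LPS or 5 ug/ml anti-mouse IgM F(ab′)2 plus 2 ng/ml mouse IL4, for 72 h. Viability by 5 h Alamar Blue reduction (560Ex/590Em); IC50 or EC50 fitted.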
(Alamar Blue is a resazurin reagent that responds to reducing activity.)

Another series deals with lupus symptoms. The settings on record: B6.Sle1z.Sle3z model; cited from earlier work.
The conditions of series [1]: PBS pH 7.4, 37° C., 24 hours, 5 μM; cited from earlier work.
The conditions of series [2]: control or reference compounds, 5 μM; cited from earlier work.

Where only a bound is given, the exact number is not on record here.

A word on the IC50: it is the concentration at which inhibition is half-maximal.

T4 sequence (P42338 whole entry): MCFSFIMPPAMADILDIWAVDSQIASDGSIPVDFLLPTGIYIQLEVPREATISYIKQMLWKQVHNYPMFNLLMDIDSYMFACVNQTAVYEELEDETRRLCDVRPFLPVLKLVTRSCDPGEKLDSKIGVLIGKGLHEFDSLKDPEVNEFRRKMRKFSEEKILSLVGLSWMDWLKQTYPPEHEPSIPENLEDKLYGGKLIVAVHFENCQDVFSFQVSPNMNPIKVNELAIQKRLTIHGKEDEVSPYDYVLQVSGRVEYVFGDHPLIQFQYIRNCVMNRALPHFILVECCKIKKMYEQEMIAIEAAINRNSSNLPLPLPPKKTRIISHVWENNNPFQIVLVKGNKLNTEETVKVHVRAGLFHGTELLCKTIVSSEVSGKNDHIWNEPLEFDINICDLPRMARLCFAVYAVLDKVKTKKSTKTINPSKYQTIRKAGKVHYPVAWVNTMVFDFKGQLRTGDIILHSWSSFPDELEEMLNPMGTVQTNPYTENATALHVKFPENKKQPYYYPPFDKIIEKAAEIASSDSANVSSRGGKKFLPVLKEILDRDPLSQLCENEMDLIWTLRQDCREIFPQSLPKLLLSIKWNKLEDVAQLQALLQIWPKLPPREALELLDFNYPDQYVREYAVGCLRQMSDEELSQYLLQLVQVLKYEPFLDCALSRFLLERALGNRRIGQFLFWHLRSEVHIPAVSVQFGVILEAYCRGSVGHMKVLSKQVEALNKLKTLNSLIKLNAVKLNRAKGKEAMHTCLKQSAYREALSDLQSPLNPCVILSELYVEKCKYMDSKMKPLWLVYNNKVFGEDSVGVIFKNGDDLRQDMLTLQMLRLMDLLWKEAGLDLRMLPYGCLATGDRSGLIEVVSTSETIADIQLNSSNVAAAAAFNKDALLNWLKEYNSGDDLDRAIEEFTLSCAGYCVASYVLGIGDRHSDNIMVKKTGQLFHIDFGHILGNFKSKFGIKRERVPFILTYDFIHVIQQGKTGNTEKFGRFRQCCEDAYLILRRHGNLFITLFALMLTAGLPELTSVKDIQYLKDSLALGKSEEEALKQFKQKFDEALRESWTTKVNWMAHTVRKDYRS
T4 sequence (P27986 whole entry partner): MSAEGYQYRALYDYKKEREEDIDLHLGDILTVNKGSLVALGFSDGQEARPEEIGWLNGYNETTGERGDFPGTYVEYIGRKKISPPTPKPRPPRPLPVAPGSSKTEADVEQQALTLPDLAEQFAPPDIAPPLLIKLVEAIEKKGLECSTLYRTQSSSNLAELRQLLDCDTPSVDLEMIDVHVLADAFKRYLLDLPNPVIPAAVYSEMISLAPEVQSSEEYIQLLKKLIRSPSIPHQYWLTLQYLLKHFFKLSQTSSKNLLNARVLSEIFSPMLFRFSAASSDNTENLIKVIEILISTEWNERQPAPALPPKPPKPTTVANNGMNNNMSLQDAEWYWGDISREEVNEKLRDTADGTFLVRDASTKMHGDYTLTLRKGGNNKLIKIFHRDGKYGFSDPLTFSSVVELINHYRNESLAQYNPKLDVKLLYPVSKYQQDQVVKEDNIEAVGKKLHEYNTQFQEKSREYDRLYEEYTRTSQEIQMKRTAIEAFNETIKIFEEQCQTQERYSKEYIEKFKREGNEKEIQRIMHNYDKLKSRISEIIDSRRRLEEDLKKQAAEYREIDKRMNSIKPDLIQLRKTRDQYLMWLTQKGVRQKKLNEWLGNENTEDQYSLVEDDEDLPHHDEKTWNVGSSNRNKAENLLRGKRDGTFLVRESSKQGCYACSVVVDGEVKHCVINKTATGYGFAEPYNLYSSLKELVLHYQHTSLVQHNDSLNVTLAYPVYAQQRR
T1 sequence (O00329 whole entry): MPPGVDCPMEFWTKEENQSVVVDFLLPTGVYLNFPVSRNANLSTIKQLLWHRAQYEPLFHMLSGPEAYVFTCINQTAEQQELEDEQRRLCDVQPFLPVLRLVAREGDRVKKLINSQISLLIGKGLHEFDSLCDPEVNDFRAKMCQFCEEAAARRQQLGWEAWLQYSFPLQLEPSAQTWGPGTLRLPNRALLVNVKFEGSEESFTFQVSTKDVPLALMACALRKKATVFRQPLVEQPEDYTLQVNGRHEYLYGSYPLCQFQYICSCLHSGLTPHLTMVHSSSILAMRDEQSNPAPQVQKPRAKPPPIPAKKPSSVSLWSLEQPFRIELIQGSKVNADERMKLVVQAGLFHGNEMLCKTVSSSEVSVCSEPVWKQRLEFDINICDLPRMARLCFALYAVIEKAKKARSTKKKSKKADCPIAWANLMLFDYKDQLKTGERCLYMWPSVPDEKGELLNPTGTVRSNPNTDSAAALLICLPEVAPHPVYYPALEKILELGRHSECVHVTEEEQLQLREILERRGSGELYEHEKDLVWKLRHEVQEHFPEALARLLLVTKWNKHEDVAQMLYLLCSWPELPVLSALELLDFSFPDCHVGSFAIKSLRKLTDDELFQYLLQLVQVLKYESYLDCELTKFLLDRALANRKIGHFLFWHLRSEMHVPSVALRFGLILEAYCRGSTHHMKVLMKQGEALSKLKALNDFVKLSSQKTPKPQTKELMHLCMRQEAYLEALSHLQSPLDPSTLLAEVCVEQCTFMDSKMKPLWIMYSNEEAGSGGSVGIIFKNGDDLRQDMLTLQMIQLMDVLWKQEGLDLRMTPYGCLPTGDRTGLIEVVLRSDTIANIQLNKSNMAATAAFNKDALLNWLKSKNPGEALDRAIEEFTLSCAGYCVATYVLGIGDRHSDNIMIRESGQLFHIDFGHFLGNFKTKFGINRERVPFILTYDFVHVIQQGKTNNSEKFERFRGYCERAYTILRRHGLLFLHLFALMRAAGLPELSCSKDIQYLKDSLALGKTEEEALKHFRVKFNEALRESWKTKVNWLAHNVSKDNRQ
T1 sequence (P27986 whole entry partner): as the sequence (P27986 whole entry partner) above
T3 sequence (P42336 whole entry): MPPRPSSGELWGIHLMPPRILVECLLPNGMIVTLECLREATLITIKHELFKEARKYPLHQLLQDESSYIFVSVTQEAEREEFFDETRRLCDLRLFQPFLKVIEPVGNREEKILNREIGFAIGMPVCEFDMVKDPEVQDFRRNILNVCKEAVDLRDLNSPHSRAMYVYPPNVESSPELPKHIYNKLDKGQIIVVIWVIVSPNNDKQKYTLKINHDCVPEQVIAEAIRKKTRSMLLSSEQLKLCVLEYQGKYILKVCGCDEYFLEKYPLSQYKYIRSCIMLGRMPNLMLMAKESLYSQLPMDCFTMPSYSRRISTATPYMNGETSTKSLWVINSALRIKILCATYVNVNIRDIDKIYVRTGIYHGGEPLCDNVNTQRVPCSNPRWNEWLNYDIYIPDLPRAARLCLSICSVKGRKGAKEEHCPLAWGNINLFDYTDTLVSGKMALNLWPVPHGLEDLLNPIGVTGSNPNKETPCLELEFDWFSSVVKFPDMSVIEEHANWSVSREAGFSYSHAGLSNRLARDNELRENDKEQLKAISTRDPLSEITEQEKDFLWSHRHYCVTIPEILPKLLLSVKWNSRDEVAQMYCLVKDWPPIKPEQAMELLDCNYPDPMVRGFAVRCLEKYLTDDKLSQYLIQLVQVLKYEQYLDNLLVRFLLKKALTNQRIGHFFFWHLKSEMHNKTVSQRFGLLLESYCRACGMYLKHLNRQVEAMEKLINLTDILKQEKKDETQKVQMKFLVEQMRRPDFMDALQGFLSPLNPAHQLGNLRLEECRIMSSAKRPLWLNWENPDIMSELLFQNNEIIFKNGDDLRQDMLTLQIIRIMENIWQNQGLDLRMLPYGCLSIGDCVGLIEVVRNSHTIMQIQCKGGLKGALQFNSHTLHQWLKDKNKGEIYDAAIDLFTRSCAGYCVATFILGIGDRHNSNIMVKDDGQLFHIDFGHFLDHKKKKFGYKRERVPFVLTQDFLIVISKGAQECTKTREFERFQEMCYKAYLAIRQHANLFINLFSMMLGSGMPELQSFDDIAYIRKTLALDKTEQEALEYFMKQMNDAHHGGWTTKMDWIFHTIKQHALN
T3 sequence (P27986 whole entry partner): as the sequence (P27986 whole entry partner) above
T2 sequence (P48736 whole entry): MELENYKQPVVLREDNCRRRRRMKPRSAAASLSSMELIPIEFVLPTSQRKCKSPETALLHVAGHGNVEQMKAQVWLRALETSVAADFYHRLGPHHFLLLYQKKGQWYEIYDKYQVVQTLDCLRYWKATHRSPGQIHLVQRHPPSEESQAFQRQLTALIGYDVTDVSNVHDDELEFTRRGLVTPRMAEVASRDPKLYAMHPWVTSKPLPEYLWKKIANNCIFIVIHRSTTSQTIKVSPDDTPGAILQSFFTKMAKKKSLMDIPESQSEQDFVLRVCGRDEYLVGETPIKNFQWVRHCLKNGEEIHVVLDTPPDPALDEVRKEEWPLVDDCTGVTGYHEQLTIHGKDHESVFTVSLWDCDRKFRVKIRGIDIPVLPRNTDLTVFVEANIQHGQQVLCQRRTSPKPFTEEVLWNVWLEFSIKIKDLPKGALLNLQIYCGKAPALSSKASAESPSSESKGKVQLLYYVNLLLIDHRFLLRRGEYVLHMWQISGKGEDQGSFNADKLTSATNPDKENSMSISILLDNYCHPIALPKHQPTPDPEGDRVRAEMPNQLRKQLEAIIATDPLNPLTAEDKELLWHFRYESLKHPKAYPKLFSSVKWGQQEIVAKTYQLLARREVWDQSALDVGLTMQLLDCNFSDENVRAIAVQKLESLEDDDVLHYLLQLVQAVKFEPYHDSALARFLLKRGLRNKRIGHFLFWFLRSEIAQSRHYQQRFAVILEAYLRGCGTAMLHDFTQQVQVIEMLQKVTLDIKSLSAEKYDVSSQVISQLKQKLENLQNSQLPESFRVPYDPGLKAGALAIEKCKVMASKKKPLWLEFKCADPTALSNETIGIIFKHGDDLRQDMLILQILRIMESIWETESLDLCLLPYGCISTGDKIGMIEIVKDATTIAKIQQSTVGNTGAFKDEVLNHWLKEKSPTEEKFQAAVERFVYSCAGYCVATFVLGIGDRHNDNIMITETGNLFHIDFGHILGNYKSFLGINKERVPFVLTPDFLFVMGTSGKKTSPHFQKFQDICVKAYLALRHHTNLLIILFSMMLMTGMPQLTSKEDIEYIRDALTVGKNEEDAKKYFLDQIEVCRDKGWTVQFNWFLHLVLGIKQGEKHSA

On to `C[C@H](Nc1ncnc2cccnc12)c1cc2cccc(Cl)c2c(OC2CCN(S(C)(=O)=O)CC2)n1` [Compound 173], for which the IC50 on PI3Kδ is less than 0.1 µM; at PI3Kγ, less than 10 µM; on PI3Kα, more than 10 µM; at PI3Kβ, less than 10 µM; in the series with Balb/c splenic B cells, less than 1 µM.

As for `C[C@H](Nc1ccnn2ccnc12)c1cc2cccc(Cl)c2c(OC2CCN(S(C)(=O)=O)CC2)n1` [Compound 176], the IC50 at PI3Kδ is less than 0.1 µM; on PI3Kγ, less than 10 µM; at PI3Kα it was more than 10 µM; at PI3Kβ it was less than 10 µM; in the series on Balb/c splenic B cells it was less than 1 µM.

`C[C@H](Nc1ccnc2ccnn12)c1cc2cccc(Cl)c2c(C(=O)NC2CCOCC2)n1` [Compound 177]: the IC50 on PI3Kδ was less than 0.1 µM; at PI3Kγ, more than 10 µM; on PI3Kα it was more than 10 µM; at PI3Kβ, more than 10 µM; in the series with Balb/c splenic B cells, less than 0.1 µM.

Turning to `C[C@H](Nc1ccnn2ccnc12)c1cc2cccc(Cl)c2c(C(=O)NC2CCOCC2)n1` [Compound 180], the IC50 is less than 0.1 µM on PI3Kδ; more than 10 µM on PI3Kγ; more than 10 µM at PI3Kα; more than 10 µM on PI3Kβ; less than 0.1 µM in the series on Balb/c splenic B cells.

`C[C@H](Nc1ccnn2ccnc12)c1cc2cccc(Cl)c2c(OCCN2CCCC2)n1` [Compound 182]: the IC50 was less than 0.1 µM on PI3Kδ; more than 10 µM on PI3Kγ; more than 10 µM at PI3Kα; more than 10 µM on PI3Kβ; less than 1 µM in the series on Balb/c splenic B cells.

For the compound `C[C@H](Nc1ncnc2[nH]cnc12)c1cc2cccc(-c3cnn(C)c3)c2c(C(=O)N2CCOCC2)n1` [Compound 185], the IC50 is less than 0.1 µM on PI3Kδ; less than 10 µM at PI3Kγ; more than 10 µM at PI3Kα; more than 10 µM at PI3Kβ; less than 0.1 µM in the series with Balb/c splenic B cells.

Turning to `C[C@H](Nc1ccnn2ccnc12)c1cc2cccc(Cl)c2c(C(=O)N2CCOCC2)n1` [Compound 188], the IC50 on PI3Kδ was less than 0.1 µM; at PI3Kγ it was less than 1 µM; at PI3Kα it was less than 10 µM; on PI3Kβ, less than 1 µM; in the series with Balb/c splenic B cells it was less than 0.1 µM.

On to `C[C@H](Nc1ccnn2ccnc12)c1cc2cccc(Cl)c2c(C(=O)N2C3CCC2COC3)n1` [Compound 189], for which the IC50 on PI3Kδ was less than 0.1 µM; on PI3Kγ it was less than 10 µM; on PI3Kα it was more than 10 µM; at PI3Kβ it was less than 10 µM; in the series on Balb/c splenic B cells it was less than 0.1 µM.

Take `C[C@H](Nc1ncnc2[nH]cnc12)c1cc2cccc(-c3cccnc3)c2c(Cl)n1` [Compound 192]: the IC50 at PI3Kδ was less than 0.1 µM; on PI3Kγ it was less than 1 µM; at PI3Kα, more than 10 µM; at PI3Kβ, more than 10 µM; in the series on Balb/c splenic B cells, less than 1 µM.

`C[C@H](Nc1ncnc2[nH]cc(C(N)=O)c12)c1cc2cccc(Cl)c2c(C(=O)N2CCOCC2)n1` [Compound 204]: the IC50 at PI3Kδ was less than 0.1 µM; at PI3Kγ, less than 0.1 µM; on PI3Kα it was less than 10 µM; on PI3Kβ, less than 10 µM; in the series on Balb/c splenic B cells, less than 0.1 µM.

In the case of `C[C@H](Nc1ncnc2[nH]cc(C(N)=O)c12)c1cc2cccc(Cl)c2c(C(=O)N2C3CCC2COC3)n1` [Compound 207], the IC50 on PI3Kδ is less than 0.1 µM; on PI3Kγ it was less than 0.1 µM; at PI3Kα, less than 10 µM; on PI3Kβ, less than 10 µM; in the series on Balb/c splenic B cells it was less than 0.1 µM.

Regarding `C[C@H](Nc1ncnc2[nH]cc(F)c12)c1cc2cccc(Cl)c2c(C(=O)N2C3CCC2COC3)n1` [Compound 208], the IC50 is less than 0.1 µM at PI3Kδ; less than 1 µM at PI3Kγ; less than 10 µM on PI3Kα; less than 10 µM at PI3Kβ; less than 0.1 µM in the series on Balb/c splenic B cells.

As for `CCN1CCC(NC(=O)c2nc([C@H](C)Nc3ncnc4scnc34)cc3cccc(Cl)c23)CC1` [Compound 212], the IC50 at PI3Kδ was less than 0.1 µM; on PI3Kγ, less than 10 µM; at PI3Kα, less than 10 µM; on PI3Kβ, less than 10 µM; in the series on Balb/c splenic B cells it was less than 0.1 µM.

`C[C@H](Nc1ncnc2scnc12)c1cc2cccc(Cl)c2c(C(=O)NC2CCCC2)n1` [Compound 213]: the concentration for half-maximal inhibition (IC50) on PI3Kδ is less than 0.1 µM; at PI3Kγ, less than 10 µM; at PI3Kα, less than 10 µM; on PI3Kβ it was more than 10 µM; in the series on Balb/c splenic B cells, less than 0.1 µM.

Take `C[C@H](Nc1ncnc2scnc12)c1cc2cccc(Cl)c2c(C(=O)NC2CCC(O)CC2)n1` (some centres unmarked) [Compound 214]: the IC50 is less than 0.1 µM on PI3Kδ; less than 10 µM on PI3Kγ; less than 10 µM on PI3Kα; more than 10 µM at PI3Kβ; less than 0.1 µM in the series with Balb/c splenic B cells.

Regarding `C[C@H](Nc1ncnc2scnc12)c1cc2cccc(Cl)c2c(C(=O)N2CCS(=O)(=O)CC2)n1` [Compound 220], the IC50 on PI3Kδ is less than 0.1 µM; at PI3Kγ, less than 1 µM; on PI3Kα, more than 10 µM; on PI3Kβ it was less than 10 µM; with Balb/c splenic B cells, less than 0.1 µM.

Turning to `C[C@H](Nc1ncnc2scnc12)c1cc2cccc(Cl)c2c(C(=O)N2CCC(F)(F)CC2)n1` [Compound 228], the IC50 was less than 0.1 µM at PI3Kδ; less than 10 µM on PI3Kγ; less than 10 µM on PI3Kα; less than 10 µM on PI3Kβ; less than 0.1 µM in the series on Balb/c splenic B cells.

Turning to `C[C@H](Nc1ncnc2scnc12)c1cc2cccc(Cl)c2c(C(=O)N2CCOC[C@@H]2C)n1` [Compound 232], the IC50 is less than 0.1 µM at PI3Kδ; less than 10 µM at PI3Kγ; less than 10 µM on PI3Kα; less than 10 µM at PI3Kβ; less than 0.1 µM in the series on Balb/c splenic B cells.

`C[C@H](Nc1ncnc2scnc12)c1cc2cccc(Cl)c2c(C(=O)N2CCC(O)CC2)n1` [Compound 234]: the IC50 was less than 0.1 µM on PI3Kδ; less than 10 µM on PI3Kγ; less than 10 µM on PI3Kα; less than 10 µM on PI3Kβ; less than 0.1 µM in the series on Balb/c splenic B cells.

As to `C[C@H](Nc1nc(N)nc2cccnc12)c1cc2cccc(Cl)c2c(C(=O)N2CCOCC2)n1` [Compound 238], the IC50 at PI3Kδ is less than 0.1 µM; on PI3Kγ, less than 0.1 µM; at PI3Kα, more than 10 µM; on PI3Kβ, less than 10 µM; in the series on Balb/c splenic B cells it was less than 0.1 µM.

Consider `C[C@H](Nc1ncnc2[nH]cnc12)c1cc2cccc(Cl)c2c(-c2cc(CO)on2)n1` [Compound 242], for which the IC50 on PI3Kδ is less than 0.1 µM; at PI3Kγ it was less than 1 µM; at PI3Kα, less than 10 µM; on PI3Kβ, less than 1 µM; in the series on Balb/c splenic B cells, less than 0.1 µM.

For `C[C@H](Nc1ncnc2cccnc12)c1cc2ccccc2c(C(=O)N2CCOCC2)n1` [Compound 247], the IC50 on PI3Kδ was less than 0.1 µM; at PI3Kγ it was more than 10 µM; on PI3Kα, more than 10 µM; on PI3Kβ, more than 10 µM; in the series on Balb/c splenic B cells, less than 1 µM.

In the case of `C[C@H](Nc1ncnc2cccnc12)c1cc2cccc(Cl)c2c(C(=O)N2CCOC[C@@H]2C)n1` [Compound 248], the IC50 at PI3Kδ was less than 0.1 µM; on PI3Kγ it was less than 1 µM; on PI3Kα, less than 10 µM; on PI3Kβ it was less than 10 µM; with Balb/c splenic B cells, less than 0.1 µM.

For `CO[C@H]1C[C@@H]2CC[C@@H](C)[C@@](O)(O2)C(=O)C(=O)N2CCCC[C@H]2C(=O)O[C@H]([C@H](C)C[C@@H]2CC[C@@H](OCCO)[C@H](OC)C2)CC(=O)[C@H](C)/C=C(\C)[C@@H](O)[C@@H](OC)C(=O)[C@H](C)C[C@H](C)/C=C/C=C/C=C/1C` [RAD001, everolimus], in the series on lupus symptoms, the lupus symptoms entry is listed as “ameliorate lupus symptoms”.

`O=C(O)CCCc1ccc(N(CCCl)CCCl)cc1` [chlorambucil]: the chemical stability result in series [1] was “largely hydrolyzed over the course of 24 hours”.

Regarding `CC(C)[N+](C)(CCOC(=O)C1c2ccccc2Oc2ccccc21)C(C)C` [propantheline], in series [2], the plasma stability result is recorded as “intermediate plasma stability”.

As to `CCCOc1cc(N)ccc1C(=O)OCCN(CC)CC` [propoxycaine], the plasma stability result in series [2] is “low plasma stability”.

The values above are taken from US8901133B2, “Heterocyclic compounds and uses thereof” (Infinity Pharmaceuticals, Inc., priority 2010, dated 2014).
